Laboratory results taken from patent US20170298056A1, “SMALL MOLECULE INHIBITORS OF HIV-1 ENTRY AND METHODS OF USE THEREOF” (Dana-Farber Cancer Institute, Inc., priority 2014, published 2017).

Legend:
HIV-1YU2 = assay: Viral infection assay, YU2 Env (wild type and mutants); type: cell-based; settings: for Fold change: mutant/wild-type IC50
Description: HIV-1 Env mutants. Mutations were introduced into the plasmid expressing the fulllength HIV-1YU2 or HIV-1JR-FL Envs using the QuikChange II site-directed mutagenesis protocol or the QuikChange multi site-directed mutagenesis kit (Stratagene). The presence of the desired mutations was confirmed by DNA sequencing. All HIV-1 Env residues are numbered based on alignment with the HXBc2 prototypic sequence, according to current convention.
Production of recombinant HIV-1 expressing luciferase. […] After 48 hours, the supernatant was collected, buffered with 50 mM Hepes pH 7.4 (final concentration) and centrifuged for 5 minutes at 750×g and 4° C. The virus-containing supernatant was used directly or frozen at −80° C.
Viral infection assay. Each test compound was serially diluted in DMSO in a 96-well B&W isoplate (PerkinElmer, Boston, Mass.) using an HP D300 Digital Dispenser, to a final volume of 450 nl. DMSO was used as a control. Viruses pseudotyped with a specific Env were added to each well and incubated briefly at room temperature. Cf2Th-CD4/CCR5 cells were detached with StemPro Accutase Cell Dissociation Reagent (Invitrogen, cat #A11105-01), washed once, and 5000 cells were added to each well. […] Following incubation, the medium was aspirated and cells were lysed with 30 μl of Passive Lysis Buffer (Promega, cat #E1941). The activity of the firefly luciferase, which was used as a reporter protein in the system, was measured with a Centro LB 960 luminometer (Berthold Technologies, Oak Ridge, Tenn.). One hundred microliters of assay buffer (15 mM MgSO4, 15 mM KH2PO4/K2HPO4 pH 7.8, 1 mM ATP and 1 mM DTT) was injected to each well, followed by a 50 μl injection of 1 mM Dluciferin potassium salt (BD Pharmingen, San Jose, Calif.); luminescence was measured for 2 sec. Infection of PBMC was done as above, but 20,000-40,000 cells/well and viruses concentrated by ultracentrifugation were used. After four hours of incubation with viruses, the cells were centrifuged at 200×g for 6 minutes at 4° C., resuspended in 100 μl RPMI-PBMC medium and incubated at 37° C. for an additional 36-40 hours (total 40-44 hours). Supernatant was removed after centrifugation at 400×g for 5 minutes and cells were processed to detect luciferase activity, as described above.

Cf2Th-CD4/CXCR4 cells = assay: Viability assay (CellTiterGlo), CD4/CXCR4-expressing target cells; type: cell-based
Experimental: Viability Assay. As part of the secondary screen, cells were incubated for ˜20 hours in 384-well plates in a final volume of 45 μl growth medium at 37° C. The plate was equilibrated to room temperature, 15 μl of CellTiterGlo (Promega) was added to each well and luminescence was measured as described above. The viability assay with 18A was done in parallel to the viral infection assay for the same length of time. 18A was diluted using an HP D300 Digital Dispenser in a 96-well B&W isoplate and cells were added. After incubation of 26-30 hours (Cf2Th cells) or 40-44 hours (PBMC). 30 μl (Cf2Th cells) or 100 μl (PBMC) of CellTiterGlo was added and luminescence was measured as described above.

O=C(N/N=C/c1ccc(O)cc1)Nc1cccc2nsnc12 [Compound 18A]
IC50 (HIV-1YU2; YU2 Env D113A): 6 ± 1.4 µM | Fold change (HIV-1YU2; YU2 Env D113A): 0.7 | IC50 (HIV-1YU2; YU2 Env D589L): 12.1 ± 1.5 µM | Fold change (HIV-1YU2; YU2 Env D589L): 1.4 | IC50 (HIV-1YU2; YU2 Env E370A): 2.3 ± 0.8 µM | Fold change (HIV-1YU2; YU2 Env E370A): 0.3 | IC50 (HIV-1YU2; YU2 Env E429K): 9 ± 1.4 µM | Fold change (HIV-1YU2; YU2 Env E429K): 1.1 | IC50 (HIV-1YU2; YU2 Env H66A): 8 ± 0.9 µM | Fold change (HIV-1YU2; YU2 Env H66A): 1 | IC50 (HIV-1YU2; YU2 Env H66N): 4.6 ± 0.5 µM | Fold change (HIV-1YU2; YU2 Env H66N): 0.5 | IC50 (HIV-1YU2; YU2 Env I108A): 6.1 ± 0.7 µM | Fold change (HIV-1YU2; YU2 Env I108A): 0.7 | IC50 (HIV-1YU2; YU2 Env I109W): 2.9 ± 0.4 µM | Fold change (HIV-1YU2; YU2 Env I109W): 0.3 | IC50 (HIV-1YU2; YU2 Env I285A): 6.3 ± 1.5 µM | Fold change (HIV-1YU2; YU2 Env I285A): 0.7 | IC50 (HIV-1YU2; YU2 Env I309A): 4.2 ± 1.3 µM | Fold change (HIV-1YU2; YU2 Env I309A): 0.5 | IC50 (HIV-1YU2; YU2 Env I371A): 6.5 ± 0.9 µM | Fold change (HIV-1YU2; YU2 Env I371A): 0.8 | IC50 (HIV-1YU2; YU2 Env I420C): 2.1 ± 0.4 µM | Fold change (HIV-1YU2; YU2 Env I420C): 0.2 | IC50 (HIV-1YU2; YU2 Env I420S): 4.8 ± 0.8 µM | Fold change (HIV-1YU2; YU2 Env I420S): 0.6 | IC50 (HIV-1YU2; YU2 Env I423R): 2.4 ± 0.4 µM | Fold change (HIV-1YU2; YU2 Env I423R): 0.3 | IC50 (HIV-1YU2; YU2 Env K117W): 6.5 ± 1.1 µM | Fold change (HIV-1YU2; YU2 Env K117W): 0.8 | IC50 (HIV-1YU2; YU2 Env L111A): 10.4 ± 1.6 µM | Fold change (HIV-1YU2; YU2 Env L111A): 1.2 | IC50 (HIV-1YU2; YU2 Env L260A): 3.4 ± 1.5 µM | Fold change (HIV-1YU2; YU2 Env L260A): 0.4 | IC50 (HIV-1YU2; YU2 Env L261A): 4.9 ± 1 µM | Fold change (HIV-1YU2; YU2 Env L261A): 0.6 | IC50 (HIV-1YU2; YU2 Env L317A): 10.2 ± 1.4 µM | Fold change (HIV-1YU2; YU2 Env L317A): 1.2 | IC50 (HIV-1YU2; YU2 Env M475A (associated with resistance to BMS-806)): 10.2 ± 2.6 µM | Fold change (HIV-1YU2; YU2 Env M475A): 1.2 | IC50 (HIV-1YU2; YU2 Env N377A): 3.3 ± 0.6 µM | Fold change (HIV-1YU2; YU2 Env N377A): 0.4 | IC50 (HIV-1YU2; YU2 Env P212A): 10.2 ± 1.5 µM | Fold change (HIV-1YU2; YU2 Env P212A): 1.2 | IC50 (HIV-1YU2; YU2 Env Q114N): 14.8 ± 2.1 µM | Fold change (HIV-1YU2; YU2 Env Q114N): 1.7 | IC50 (HIV-1YU2; YU2 Env S110A): 7.3 ± 1.6 µM | Fold change (HIV-1YU2; YU2 Env S110A): 0.9 | IC50 (HIV-1YU2; YU2 Env S110N): 5.9 ± 1.8 µM | Fold change (HIV-1YU2; YU2 Env S110N): 0.7 | IC50 (HIV-1YU2; YU2 Env S375A): 10 ± 1.3 µM | Fold change (HIV-1YU2; YU2 Env S375A): 1.2 | IC50 (HIV-1YU2; YU2 Env S375W (associated with resistance to BMS-806)): 14.6 ± 2.8 µM | Fold change (HIV-1YU2; YU2 Env S375W): 1.7 | IC50 (HIV-1YU2; YU2 Env T71A): 7.1 ± 1.4 µM | Fold change (HIV-1YU2; YU2 Env T71A): 0.8 | IC50 (HIV-1YU2; YU2 Env T257A): 13.2 ± 1.1 µM | Fold change (HIV-1YU2; YU2 Env T257A): 1.5 | IC50 (HIV-1YU2; YU2 Env T257S): 6.9 ± 0.8 µM | Fold change (HIV-1YU2; YU2 Env T257S): 0.8 | IC50 (HIV-1YU2; YU2 Env V255A): 14 ± 1.2 µM | Fold change (HIV-1YU2; YU2 Env V255A): 1.6 | IC50 (HIV-1YU2; YU2 Env V255G): 7.9 ± 1.7 µM | Fold change (HIV-1YU2; YU2 Env V255G): 0.9 | IC50 (HIV-1YU2; YU2 Env V255I): 5.4 ± 1.3 µM | Fold change (HIV-1YU2; YU2 Env V255I): 0.6 | IC50 (HIV-1YU2; YU2 Env V255W): 3.6 ± 1.3 µM | Fold change (HIV-1YU2; YU2 Env V255W): 0.4 | IC50 (HIV-1YU2; YU2 Env V430A): 5.9 ± 0.6 µM | Fold change (HIV-1YU2; YU2 Env V430A): 0.7 | IC50 (HIV-1YU2; YU2 Env V430S): 2.9 ± 0.3 µM | Fold change (HIV-1YU2; YU2 Env V430S): 0.3 | IC50 (HIV-1YU2; YU2 Env W69L): 3.5 ± 0.5 µM | Fold change (HIV-1YU2; YU2 Env W69L + S375W): 1.7 | Fold change (HIV-1YU2; YU2 Env W69L): 0.4 | IC50 (HIV-1YU2; YU2 Env W479A): 1.3 ± 0.2 µM | Fold change (HIV-1YU2; YU2 Env W479A): 0.2 | IC50 (HIV-1YU2; YU2 Env W596M): 9.4 ± 1.4 µM | Fold change (HIV-1YU2; YU2 Env W596M): 1.1 | IC50 (HIV-1YU2; YU2 Env double mutant W69L + S375W): 15 ± 2.5 µM | IC50 (HIV-1YU2; YU2 Env wild type): 8.6 ± 1.4 µM | Fold change (HIV-1YU2; YU2 Env wild type): 1 | CC50 (Cf2Th-CD4/CXCR4 cells): 63 µM
